Laboratory results reported in patent publication US20230312550A1, “N-(2-(4-CYANOTHIAZOLIDIN-3-YL)-2-OXOETHYL)-QUINOLINE-4-CARBOXAMIDES” (AstraZeneca AB, priority 2020, published 2023).
≈ marks a conversion by molar mass, not a printed value.

How the values were obtained:
[1] = target: human Fibroblast activation protein alpha (hFAP) (Homo sapiens (Human), UniProt Q12884); test: hFAP inhibition assay (tight binders); type: biochemical; conditions: Ala-Pro-AMC 20 μM, n = 1 or geometric mean n = 2-6; also: hFAP 2.4 pM
Description: The plates were read on a PHERAstar® reader with excitation 340 nm and emission 460 nm. Data were analyzed in Genedata Screener®. IC50 values were determined by plotting % inhibition versus log compound concentration and using a one site dose response model.

hFAP (M39-A757) = hFAP (M39-A757) (Homo sapiens (Human), UniProt Q12884); test: hFAP binding assay (surface plasmon resonance); conditions: SPR, 20° C.; for hFAP Binding assay k(off) / hFAP Binding assay k(on): single cycle kinetics; for Kd: n = 1 or geometric mean n = 2-4
FAP [2] = target: T1, FAP (Homo sapiens (Human), UniProt Q12884); test: FAP plasma inhibition assay, human plasma; type: biochemical; conditions: human plasma diluted 1:40, Ala-Pro-AMC 75 μM
Description: (§1) This assay was adapted from the method described in Example 237 for detection of FAP target engagement enzyme activity in plasma. Plasma (anticoagulant K2EDTA) was used as the enzyme source: Human plasma (Pooled from AZ Biobank), Mouse plasma (AZ AST Biobank), and Cynomolgus plasma (BioIVT, #NHP00PLK2FNN, lot CYN222895). 384-Well black fluotrack PS plates (Greiner 781076) were used. 20 μL diluted plasma (Cynomolgus and Human plasma dilution 1:40, Mouse plasma dilution 1:67) in buffer (PBS, 0.1% BSA) was added to 0.6 μL compounds (in DMSO). Compounds were tested using 10 CR, 3 fold dilution series from 500 nM FAC. Two replicates for each assay point were run on the same plate. A fluorescence blank read was taken before substrate addition. […] Plates were incubated for 40 min at rt in the dark. […] IC50 values were determined by plotting % inhibition versus log compound concentration.
Target sequence in this assay (Q12884 24-760): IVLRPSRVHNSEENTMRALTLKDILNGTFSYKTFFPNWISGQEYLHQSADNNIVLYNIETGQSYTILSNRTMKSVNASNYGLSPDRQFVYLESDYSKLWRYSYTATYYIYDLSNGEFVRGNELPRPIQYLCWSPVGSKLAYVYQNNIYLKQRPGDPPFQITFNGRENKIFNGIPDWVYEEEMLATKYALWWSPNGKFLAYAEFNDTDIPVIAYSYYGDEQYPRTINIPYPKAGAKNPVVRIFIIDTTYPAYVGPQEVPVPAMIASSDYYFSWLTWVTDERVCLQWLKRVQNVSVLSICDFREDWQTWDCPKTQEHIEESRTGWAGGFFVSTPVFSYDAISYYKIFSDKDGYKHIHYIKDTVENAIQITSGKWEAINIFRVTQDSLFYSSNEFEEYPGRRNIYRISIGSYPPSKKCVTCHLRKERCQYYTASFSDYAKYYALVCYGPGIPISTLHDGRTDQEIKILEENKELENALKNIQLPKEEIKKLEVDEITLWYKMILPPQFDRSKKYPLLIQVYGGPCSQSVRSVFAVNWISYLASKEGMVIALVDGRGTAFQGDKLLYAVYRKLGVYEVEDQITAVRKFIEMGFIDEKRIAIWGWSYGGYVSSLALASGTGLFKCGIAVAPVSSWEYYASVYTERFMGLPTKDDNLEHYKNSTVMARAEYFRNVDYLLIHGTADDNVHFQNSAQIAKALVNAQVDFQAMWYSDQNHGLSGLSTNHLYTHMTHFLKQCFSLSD

FAP [3] = target: FAP (Mus musculus (Mouse), UniProt P97321); test: FAP plasma inhibition assay, mouse plasma; type: biochemical; conditions: mouse plasma diluted 1:67, Ala-Pro-AMC 75 μM
Description: as §1

[4] = target: Prolyl endopeptidase, Prolyl Oligopeptidase (hPREP) (Homo sapiens (Human), UniProt P48147); test: hPrep inhibition assay; type: biochemical; conditions: hPREP 0.6 nM, Z-Gly-Pro-amino-methylcoumarin 50 μM; read-out: PREP IC50
Procedure, shortened: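 Fluorogenic read-out (340 nm excitation, 460 nm emission) after 20 min at rt, using 50 μM final Z-Gly-Pro-aminomethylcoumarin and 0.6 nM final enzyme, following 15 min compound preincubation. Buffer pH 7.5 with glutathione and Triton X-100. IC50 via one-site model on % inhibition vs log concentration.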

Kinetic solubility = conditions: kinetic from dmso stock
Description: Kinetic solubility was measured as described in Comput Aided Mol Des 2015, 29, 795.

Caco-2 cell permeability = conditions: human
Description: Caco-2 cell permeability was measured as described in Mol Pharm 2017, 14, 1601.

[5] = Metabolic stability in rat hepatocytes (rHep); conditions: n = 1 or geometric mean of n = 2-3
[6] = Metabolic stability in human liver microsomes (HLM); conditions: human
Description: Metabolic stability in HLM was measured as described in J Comput Aided Mol Des 2015, 29, 795.

FAP [7] = target: T1, FAP; test: hFAP inhibition assay; type: biochemical; conditions: hFAP […], Ala-Pro-AMC 20 μM; n = 1 or geometric mean n = 2-3
Procedure, shortened: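 Compounds (10-point, 3-fold dilutions from 50 μM top) were preincubated 15 min at rt in the dark with 0.48 nM hFAP in pH 7.4 Tris/NaCl/Chaps buffer. Reaction was started with substrate (40 μM solution) and ran 30 min at rt. Read by fluorescence (340/460 nm); IC50 from one-site fit.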
Target sequence in this assay (Q12884 38-760): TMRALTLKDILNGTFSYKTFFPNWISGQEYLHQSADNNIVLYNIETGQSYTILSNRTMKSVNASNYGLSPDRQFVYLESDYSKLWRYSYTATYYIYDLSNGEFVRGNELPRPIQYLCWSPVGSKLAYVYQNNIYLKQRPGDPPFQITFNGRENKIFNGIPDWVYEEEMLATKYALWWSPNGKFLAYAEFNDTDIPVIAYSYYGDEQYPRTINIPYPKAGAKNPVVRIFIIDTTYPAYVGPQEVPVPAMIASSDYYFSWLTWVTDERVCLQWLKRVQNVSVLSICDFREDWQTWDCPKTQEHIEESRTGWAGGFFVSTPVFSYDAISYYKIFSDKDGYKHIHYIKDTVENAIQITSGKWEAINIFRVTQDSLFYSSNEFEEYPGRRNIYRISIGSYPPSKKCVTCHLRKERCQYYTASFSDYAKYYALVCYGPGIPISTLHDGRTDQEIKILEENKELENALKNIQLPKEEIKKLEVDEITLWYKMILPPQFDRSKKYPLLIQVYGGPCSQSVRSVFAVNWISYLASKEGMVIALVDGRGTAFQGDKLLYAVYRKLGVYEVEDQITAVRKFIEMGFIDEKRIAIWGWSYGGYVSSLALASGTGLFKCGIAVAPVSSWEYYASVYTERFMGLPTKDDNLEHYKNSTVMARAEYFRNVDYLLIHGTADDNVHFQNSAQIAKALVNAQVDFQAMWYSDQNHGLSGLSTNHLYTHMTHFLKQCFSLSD

[8] = Metabolic stability in human hepatocytes (hHep); type: in vitro ADME; conditions: n = 1 or geometric mean of n = 2
[9] = Solubility, kinetic solubility, n = 1 or average of n = 2-3
[10] = HLM CLint, n = 1 or average of n = 2-3

Sequence of human Fibroblast activation protein alpha (hFAP) (Q12884 38-760): as above
Sequence of hFAP (M39-A757) (Q12884 39-757): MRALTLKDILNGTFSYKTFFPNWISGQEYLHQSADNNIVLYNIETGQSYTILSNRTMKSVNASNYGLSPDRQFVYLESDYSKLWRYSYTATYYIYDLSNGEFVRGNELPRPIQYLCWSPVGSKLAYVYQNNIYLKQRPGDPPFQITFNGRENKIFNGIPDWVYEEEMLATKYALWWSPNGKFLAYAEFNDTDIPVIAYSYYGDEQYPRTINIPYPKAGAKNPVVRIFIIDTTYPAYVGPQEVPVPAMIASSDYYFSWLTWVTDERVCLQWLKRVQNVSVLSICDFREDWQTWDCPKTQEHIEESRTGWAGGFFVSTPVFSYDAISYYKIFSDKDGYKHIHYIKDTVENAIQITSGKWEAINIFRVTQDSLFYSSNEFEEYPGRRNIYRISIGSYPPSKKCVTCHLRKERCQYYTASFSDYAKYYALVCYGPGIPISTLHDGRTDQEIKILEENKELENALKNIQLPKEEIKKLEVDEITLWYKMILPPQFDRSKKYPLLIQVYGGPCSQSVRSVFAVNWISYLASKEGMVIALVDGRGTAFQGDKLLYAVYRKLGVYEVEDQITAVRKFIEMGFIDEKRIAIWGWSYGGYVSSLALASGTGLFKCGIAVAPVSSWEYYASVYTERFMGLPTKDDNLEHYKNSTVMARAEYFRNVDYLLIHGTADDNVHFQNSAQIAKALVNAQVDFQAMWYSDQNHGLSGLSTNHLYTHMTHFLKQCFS
Sequence of Prolyl endopeptidase, Prolyl Oligopeptidase (hPREP) (P48147 whole entry): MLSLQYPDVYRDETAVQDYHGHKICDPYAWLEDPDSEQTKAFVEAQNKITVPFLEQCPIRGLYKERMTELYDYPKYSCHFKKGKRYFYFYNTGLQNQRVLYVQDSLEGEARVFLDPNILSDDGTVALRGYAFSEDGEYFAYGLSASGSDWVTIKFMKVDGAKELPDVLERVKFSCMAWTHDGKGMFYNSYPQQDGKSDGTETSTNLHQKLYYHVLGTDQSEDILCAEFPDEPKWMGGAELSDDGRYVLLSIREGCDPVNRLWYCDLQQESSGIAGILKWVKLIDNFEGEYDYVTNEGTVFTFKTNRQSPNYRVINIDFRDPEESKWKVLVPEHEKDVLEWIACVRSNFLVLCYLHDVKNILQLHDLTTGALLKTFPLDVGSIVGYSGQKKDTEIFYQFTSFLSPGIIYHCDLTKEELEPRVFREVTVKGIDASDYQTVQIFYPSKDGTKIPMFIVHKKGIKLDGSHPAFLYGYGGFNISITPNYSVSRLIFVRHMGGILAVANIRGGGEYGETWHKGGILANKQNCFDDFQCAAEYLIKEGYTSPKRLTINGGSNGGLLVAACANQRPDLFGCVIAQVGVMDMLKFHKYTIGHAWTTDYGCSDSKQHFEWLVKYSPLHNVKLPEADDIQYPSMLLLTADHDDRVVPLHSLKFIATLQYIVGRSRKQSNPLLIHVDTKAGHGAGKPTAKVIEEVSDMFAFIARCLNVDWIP
Sequence of FAP (Mus musculus (Mouse), UniProt P97321) (P97321 24-761): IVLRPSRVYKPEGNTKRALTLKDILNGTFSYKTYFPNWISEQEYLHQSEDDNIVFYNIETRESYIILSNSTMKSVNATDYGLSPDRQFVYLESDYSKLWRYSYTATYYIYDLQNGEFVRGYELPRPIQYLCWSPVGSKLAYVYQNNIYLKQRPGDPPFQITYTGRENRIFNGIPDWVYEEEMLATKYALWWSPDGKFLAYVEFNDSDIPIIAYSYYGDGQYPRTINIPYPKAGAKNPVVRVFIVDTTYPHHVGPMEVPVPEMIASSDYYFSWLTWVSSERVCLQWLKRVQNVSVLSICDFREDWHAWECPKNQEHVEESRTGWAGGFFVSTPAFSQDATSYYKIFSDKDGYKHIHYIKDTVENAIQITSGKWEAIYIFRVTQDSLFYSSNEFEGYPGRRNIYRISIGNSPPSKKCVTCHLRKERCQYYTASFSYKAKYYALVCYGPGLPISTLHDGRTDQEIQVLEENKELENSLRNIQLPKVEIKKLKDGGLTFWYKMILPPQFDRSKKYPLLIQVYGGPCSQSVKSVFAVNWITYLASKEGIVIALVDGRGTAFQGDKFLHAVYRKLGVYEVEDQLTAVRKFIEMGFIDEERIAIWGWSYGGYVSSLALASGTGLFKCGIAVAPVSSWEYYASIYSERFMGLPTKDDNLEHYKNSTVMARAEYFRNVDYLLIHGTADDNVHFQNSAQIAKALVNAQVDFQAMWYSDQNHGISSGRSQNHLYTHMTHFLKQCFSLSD

Row | SMILES | IC50 [1] | hFAP Binding assay k(off) (hFAP (M39-A757)) | hFAP Binding assay k(on) (hFAP (M39-A757)) | Kd (hFAP (M39-A757)) | IC50 (FAP [2]) | IC50 (FAP [3]) | IC50 [4] | solubility (Kinetic solubility; [9]) | Papp A→B (Caco-2 cell permeability) | Papp B→A (Caco-2 cell permeability) | efflux ratio (Caco-2 cell permeability) | rHep CLint [5] | microsomal CLint [6, 10] | IC50 (FAP [7]) | hHep CLint [8] | Papp (Caco-2 cell permeability) | solubility (Kinetic solubility) | microsomal CLint [6]
1 | C[C@H]1CCCN(c2ccc3nccc(C(=O)NCC(=O)N4CSC[C@H]4C#N)c3c2)C1=O (single isomer, unassigned) [Example 203, N-(2-((R)-4-Cyanothiazolidin-3-yl)-2-oxoethyl)-6-((R*)-3-methyl-2-oxopiperidin-1-yl)quinoline-4-carboxamide] | 0.26 nM | 0.000063 s⁻¹ | 440000 M⁻¹ s⁻¹ | 0.15 nM | 0.4 nM | 0.5 nM | 3500 nM | 540 µM (≈ 236 µg/mL) | 0.4 ×10⁻⁶ cm/s | 8 ×10⁻⁶ cm/s | 20 | 2.9 μL/min/1E6 | 12 µL/min/mg |  |  |  |  | 
2 | CC1(C)COC12CN(c1ccc3nccc(C(=O)NCC(=O)N4CSC[C@H]4C#N)c3c1)C2 [Example 18, (R)—N-(2-(4-Cyanothiazolidin-3-yl)-2-oxoethyl)-6-(3,3-dimethyl-1-oxa-6-azaspiro[3.3]heptan-6-yl)quinoline-4-carboxamide] | 0.047 nM | 0.000059 s⁻¹ | 1400000 M⁻¹ s⁻¹ | 0.068 nM |  |  | 570 nM |  | 0.9 ×10⁻⁶ cm/s | 31 ×10⁻⁶ cm/s | 34 | 6 μL/min/1E6 |  | 0.19 nM | 3.7 μL/min/1E6 | 13 ×10⁻⁶ cm/s | 93 µM (≈ 42 µg/mL) | 22 µL/min/mg
3 | CO[C@@H]1CN(c2ccc3nccc(C(=O)NCC(=O)N4CSC[C@H]4C#N)c3c2)[C@H]1C [Example 30, N-(2-((R)-4-Cyanothiazolidin-3-yl)-2-oxoethyl)-6-((2S,3R)-3-methoxy-2-methylazetidin-1-yl)quinoline-4-carboxamide] | 0.12 nM | 0.00022 s⁻¹ | 5200000 M⁻¹ s⁻¹ | 0.042 nM |  |  | 510 nM | > 1000 µM | 3.1 ×10⁻⁶ cm/s | 30 ×10⁻⁶ cm/s | 9.6 | 7.2 μL/min/1E6 | < 3 µL/min/mg | 0.28 nM | <1 μL/min/1E6 | 15 ×10⁻⁶ cm/s |  | 
4 | N#C[C@@H]1CSCN1C(=O)CNC(=O)c1ccnc2ccc(N3CCCCC3)cc12 [Example 32, (R)—N-(2-(4-Cyanothiazolidin-3-yl)-2-oxoethyl)-6-(piperidin-1-yl)quinoline-4-carboxamide] | 0.16 nM | 0.000029 s⁻¹ | 1300000 M⁻¹ s⁻¹ | 0.022 nM |  |  | 450 nM | 240 µM (≈ 98.3 µg/mL) | 8.7 ×10⁻⁶ cm/s | 28 ×10⁻⁶ cm/s | 3.3 | 19 μL/min/1E6 | 40 µL/min/mg | 0.3 nM | 4.1 μL/min/1E6 |  |  | 
5 | C[C@@H]1COC[C@H](C)N1c1ccc2nccc(C(=O)NCC(=O)N3CSC[C@H]3C#N)c2c1 [Example 90, N-(2-((R)-4-Cyanothiazolidin-3-yl)-2-oxoethyl)-6-((3S,5R)-3,5-dimethyl-morpholino)quinoline-4-carboxamide] | 0.35 nM | 0.00010 s⁻¹ | 480000 M⁻¹ s⁻¹ | 0.38 nM |  |  | 1100 nM | > 1000 µM | 1.2 ×10⁻⁶ cm/s | 19 ×10⁻⁶ cm/s | 16 | 20 μL/min/1E6 | 100 µL/min/mg | 0.75 nM | 4.6 μL/min/1E6 |  |  | 
6 | CC1(CS(C)(=O)=O)CN(c2ccc3nccc(C(=O)NCC(=O)N4CSC[C@H]4C#N)c3c2)C1 [Example 188, (R)—N-(2-(4-Cyanothiazolidin-3-yl)-2-oxoethyl)-6-(3-methyl-3-((methylsulfonyl)methyl)azetidin-1-yl)quinoline-4-carboxamide] | 0.19 nM | 0.000022 s⁻¹ | 2600000 M⁻¹ s⁻¹ | 0.011 nM |  |  | 430 nM | 990 µM (≈ 483 µg/mL) | 0.18 ×10⁻⁶ cm/s | 3.7 ×10⁻⁶ cm/s | 21 | 1.8 μL/min/1E6 | 3.1 µL/min/mg | 0.28 nM | <1 μL/min/1E6 | 0.28 ×10⁻⁶ cm/s |  | 

Continued by falling IC50 [1], values first:

Row | IC50 [1] | hFAP Binding assay k(off) (hFAP (M39-A757)) | hFAP Binding assay k(on) (hFAP (M39-A757)) | Kd (hFAP (M39-A757)) | IC50 (FAP [2]) | IC50 (FAP [3]) | IC50 [4] | solubility (Kinetic solubility; [9]) | Papp A→B (Caco-2 cell permeability) | Papp B→A (Caco-2 cell permeability) | efflux ratio (Caco-2 cell permeability) | rHep CLint [5] | microsomal CLint [6, 10] | IC50 (FAP [7]) | hHep CLint [8] | Papp (Caco-2 cell permeability) | SMILES | solubility (Kinetic solubility) | microsomal CLint [6]
7 | 0.11 nM | 0.0002 s⁻¹ | 3000000 M⁻¹ s⁻¹ | 0.066 nM |  |  | 93 nM | 390 µM (≈ 156 µg/mL) | 3.7 ×10⁻⁶ cm/s | 23 ×10⁻⁶ cm/s | 6.2 | 17 μL/min/1E6 | 15 µL/min/mg | 0.29 nM | <1 μL/min/1E6 |  | N#C[C@@H]1CSCN1C(=O)CNC(=O)c1ccnc2ccc(N3CC(F)C3)cc12 [Example 21, (R)—N-(2-(4-Cyanothiazolidin-3-yl)-2-oxoethyl)-6-(3-fluoroazetidin-1-yl)quinoline-4-carboxamide] |  | 
8 | 0.083 nM | 0.00042 s⁻¹ | 3000000 M⁻¹ s⁻¹ | 0.14 nM |  |  | 740 nM | 280 µM (≈ 129 µg/mL) | 0.17 ×10⁻⁶ cm/s | 29 ×10⁻⁶ cm/s | 170 | 7.1 μL/min/1E6 | 32 µL/min/mg | 0.25 nM | 1.6 μL/min/1E6 | 14 ×10⁻⁶ cm/s | CC1(C)Cc2c(-c3ccc4nccc(C(=O)NCC(=O)N5CSC[C@H]5C#N)c4c3)cnn2C1 [Example 123, (R)—N-(2-(4-Cyanothiazolidin-3-yl)-2-oxoethyl)-6-(5,5-dimethyl-5,6-dihydro-4H-pyrrolo[1,2-b]pyrazol-3-yl)quinoline-4-carboxamide] |  | 
9 | 0.067 nM | 0.000058 s⁻¹ | 850000 M⁻¹ s⁻¹ | 0.068 nM | 0.2 nM | 0.3 nM | 920 nM | 480 µM (≈ 210 µg/mL) | 0.44 ×10⁻⁶ cm/s | 8.5 ×10⁻⁶ cm/s | 19 | 1.8 μL/min/1E6 | 8 µL/min/mg |  |  |  | C[C@@H]1CCCN(c2ccc3nccc(C(=O)NCC(=O)N4CSC[C@H]4C#N)c3c2)C1=O (single isomer, unassigned) [Example 204, N-(2-((R)-4-Cyanothiazolidin-3-yl)-2-oxoethyl)-6-((R*)-3-methyl-2-oxopiperidin-1-yl)quinoline-4-carboxamide] |  | 
10 | 0.055 nM | 0.000061 s⁻¹ | 1100000 M⁻¹ s⁻¹ | 0.057 nM |  |  | 500 nM | 560 µM (≈ 246 µg/mL) | 3.7 ×10⁻⁶ cm/s | 37 ×10⁻⁶ cm/s | 10 | 4.5 μL/min/1E6 | 18 µL/min/mg | 0.13 nM | <1 μL/min/1E6 | 26 ×10⁻⁶ cm/s | COCC1(C)CN(c2ccc3nccc(C(=O)NCC(=O)N4CSC[C@H]4C#N)c3c2)C1 [Example 29, (R)—N-(2-(4-Cyanothiazolidin-3-yl)-2-oxoethyl)-6-(3-(methoxymethyl)-3-methylazetidin-1-yl)quinoline-4-carboxamide] |  | 
